Experimental data: ChEMBL document CHEMBL1909046, “DrugMatrix in vitro pharmacology data”

Key:
Carbonic anhydrase 2 = Carbonic anhydrase 2 (Homo sapiens, UniProt P00918); test: DRUGMATRIX: Carbonic Anhydrase II enzyme inhibition (substrate: 4-Nitrophenyl acetate (4-NPA)); assay type: tissue-based, Erythrocyte; conditions: Not Active = under 50% inhibition at 10 µM
[1] = biological target: T1, 5-hydroxytryptamine receptor 1A (Rattus norvegicus, UniProt P19327); assay type: cell membranes, CHO-K1, Membrane; note: in other assays of this panel Not Active means under 50% inhibition at 10 µM
T1 sequence (P19327 whole entry): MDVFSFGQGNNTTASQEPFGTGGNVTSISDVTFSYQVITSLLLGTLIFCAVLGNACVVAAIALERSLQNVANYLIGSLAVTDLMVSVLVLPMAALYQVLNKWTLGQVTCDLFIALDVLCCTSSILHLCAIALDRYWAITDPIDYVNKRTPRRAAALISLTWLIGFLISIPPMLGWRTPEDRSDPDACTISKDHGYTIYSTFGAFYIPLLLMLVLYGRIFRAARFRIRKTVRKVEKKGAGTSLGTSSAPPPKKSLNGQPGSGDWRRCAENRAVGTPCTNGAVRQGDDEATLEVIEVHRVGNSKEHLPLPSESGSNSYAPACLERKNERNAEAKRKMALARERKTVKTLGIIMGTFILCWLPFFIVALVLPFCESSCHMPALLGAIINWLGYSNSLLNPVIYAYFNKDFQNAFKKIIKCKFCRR

[2] = biological target: 5-hydroxytryptamine receptor 2B (Homo sapiens, UniProt P41595); assay type: cell membranes, CHO-K1, Membrane; note: in other assays of this panel Not Active means under 50% inhibition at 10 µM
[3] = biological target: T2, 3-hydroxy-3-methylglutaryl-coenzyme A reductase (Homo sapiens, UniProt P04035); design: species or system Escherichia coli;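 note: enzyme inhibition assay of HMG-CoA reductase using radiolabeled [14C]HMG-CoA as substrate; in other assays of this panel Not Active means under 50% inhibition at 10 µM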
T2 sequence (P04035 whole entry): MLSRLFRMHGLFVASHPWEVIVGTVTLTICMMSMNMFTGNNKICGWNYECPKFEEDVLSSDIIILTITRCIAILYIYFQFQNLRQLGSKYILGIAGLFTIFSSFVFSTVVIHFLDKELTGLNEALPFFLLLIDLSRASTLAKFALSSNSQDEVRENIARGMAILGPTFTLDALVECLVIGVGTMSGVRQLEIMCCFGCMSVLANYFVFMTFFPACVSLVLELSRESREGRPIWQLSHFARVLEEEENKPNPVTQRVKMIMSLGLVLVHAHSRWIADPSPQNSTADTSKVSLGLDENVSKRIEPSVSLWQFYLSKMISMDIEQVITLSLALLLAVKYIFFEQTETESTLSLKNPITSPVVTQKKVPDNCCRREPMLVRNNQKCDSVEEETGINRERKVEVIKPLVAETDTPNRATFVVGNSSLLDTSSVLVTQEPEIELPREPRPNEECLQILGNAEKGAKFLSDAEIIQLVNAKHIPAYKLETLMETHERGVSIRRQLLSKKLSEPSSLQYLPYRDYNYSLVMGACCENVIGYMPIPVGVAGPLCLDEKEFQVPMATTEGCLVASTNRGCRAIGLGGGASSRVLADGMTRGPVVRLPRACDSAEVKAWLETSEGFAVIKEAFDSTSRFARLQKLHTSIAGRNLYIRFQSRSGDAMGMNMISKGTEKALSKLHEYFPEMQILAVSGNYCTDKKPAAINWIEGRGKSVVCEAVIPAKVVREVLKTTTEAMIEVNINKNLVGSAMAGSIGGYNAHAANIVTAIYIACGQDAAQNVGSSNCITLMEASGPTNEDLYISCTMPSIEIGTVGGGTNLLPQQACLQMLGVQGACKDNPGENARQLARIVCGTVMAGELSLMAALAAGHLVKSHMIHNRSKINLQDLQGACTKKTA

Cytochrome P450 1A2 = biological target: T3, Cytochrome P450 1A2 (Homo sapiens, UniProt P05177); conditions: bti-tn-5b1-4; note: in other assays of this panel Not Active means under 50% inhibition at 10 µM
T3 sequence (P05177 whole entry): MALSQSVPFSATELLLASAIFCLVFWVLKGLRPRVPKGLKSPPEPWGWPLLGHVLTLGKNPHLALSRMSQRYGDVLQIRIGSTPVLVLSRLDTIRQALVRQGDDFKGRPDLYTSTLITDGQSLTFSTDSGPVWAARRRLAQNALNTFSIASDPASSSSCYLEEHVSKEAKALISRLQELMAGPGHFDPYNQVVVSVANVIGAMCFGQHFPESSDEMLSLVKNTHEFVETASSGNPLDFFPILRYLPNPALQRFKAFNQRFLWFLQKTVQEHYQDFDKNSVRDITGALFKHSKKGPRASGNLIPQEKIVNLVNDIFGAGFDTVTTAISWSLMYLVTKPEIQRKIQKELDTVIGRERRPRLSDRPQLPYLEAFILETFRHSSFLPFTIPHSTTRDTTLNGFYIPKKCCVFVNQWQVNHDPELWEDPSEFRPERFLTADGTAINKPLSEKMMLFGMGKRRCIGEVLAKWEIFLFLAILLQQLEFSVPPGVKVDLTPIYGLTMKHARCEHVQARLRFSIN

Melanocortin receptor 3 = Melanocortin receptor 3 (Homo sapiens, UniProt P41968); assay type: cell membranes, HEK293, Membrane; conditions: hek293; note: in other assays of this panel Not Active means under 50% inhibition at 10 µM
Melanocortin receptor 3, sequence (P41968 whole entry): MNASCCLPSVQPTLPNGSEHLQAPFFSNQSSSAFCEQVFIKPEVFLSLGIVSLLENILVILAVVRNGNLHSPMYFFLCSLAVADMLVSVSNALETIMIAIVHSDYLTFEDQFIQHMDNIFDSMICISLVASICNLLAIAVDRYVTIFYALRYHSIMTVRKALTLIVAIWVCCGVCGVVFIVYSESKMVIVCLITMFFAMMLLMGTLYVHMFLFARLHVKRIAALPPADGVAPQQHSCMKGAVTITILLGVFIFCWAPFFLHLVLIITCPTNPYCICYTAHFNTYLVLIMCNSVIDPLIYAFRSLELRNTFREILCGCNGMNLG

5-hydroxytryptamine receptor 2B, sequence (P41595 whole entry): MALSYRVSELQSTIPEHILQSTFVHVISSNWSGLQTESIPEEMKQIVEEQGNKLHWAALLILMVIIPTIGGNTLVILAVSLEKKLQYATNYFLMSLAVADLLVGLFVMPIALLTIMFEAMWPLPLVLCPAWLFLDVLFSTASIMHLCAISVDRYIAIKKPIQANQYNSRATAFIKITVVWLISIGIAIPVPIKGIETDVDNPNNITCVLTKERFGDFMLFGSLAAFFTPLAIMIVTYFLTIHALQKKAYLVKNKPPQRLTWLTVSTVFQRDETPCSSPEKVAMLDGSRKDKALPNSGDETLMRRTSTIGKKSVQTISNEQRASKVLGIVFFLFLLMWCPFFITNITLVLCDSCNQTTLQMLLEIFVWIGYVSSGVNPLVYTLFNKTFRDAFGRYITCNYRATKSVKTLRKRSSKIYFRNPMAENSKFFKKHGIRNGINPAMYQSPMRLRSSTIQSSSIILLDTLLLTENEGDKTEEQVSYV

Molecule	IC50 (Carbonic anhydrase 2; erythrocyte)	IC50 ([1]; cho-k1)	IC50 ([2]; cho-k1)	IC50 [3]	IC50 (Cytochrome P450 1A2)	Ki (Cytochrome P450 1A2)	IC50 (Melanocortin receptor 3)	IC50 (Carbonic anhydrase 2; read-out: IC50)	Ki (Carbonic anhydrase 2; erythrocyte)	Ki ([1]; cho-k1)	Ki ([2]; cho-k1)	Ki [3]	Ki (Melanocortin receptor 3)	IC50 ([1]; read-out: IC50)	Ki ([1]; read-out: Ki)	IC50 ([2]; read-out: IC50)	Ki ([2]; read-out: Ki)
O=C1c2ccccc2C(=O)C1c1ccccc1 [PHENINDIONE]	Not Active	Not Active	Not Active	Not Active	Not Active	Not Active	Not Active	–	–	–	–	–	–	–	–	–	–
Clc1cc(Cl)c(OCC#CI)cc1Cl [HALOPROGIN]	Not Active	Not Active	Not Active	Not Active	Not Active	Not Active	Not Active	–	–	–	–	–	–	–	–	–	–
C[C@H]1C[C@H]2[C@@H]3CCC4=CC(=O)C=C[C@]4(C)[C@@]3(F)[C@@H](O)C[C@]2(C)[C@@]1(O)C(=O)CO [BETAMETHASONE]	Not Active	Not Active	Not Active	Not Active	Not Active	Not Active	Not Active	–	–	–	–	–	–	–	–	–	–
COc1ccc(Cl)cc1C(=O)NCCc1ccc(S(=O)(=O)NC(=O)NC2CCCCC2)cc1 [GLYBURIDE]	Not Active	Not Active	Not Active	Not Active	Not Active	Not Active	Not Active	–	–	–	–	–	–	–	–	–	–
CC1(COc2ccc(CC3SC(=O)NC3=O)cc2)CCCCC1 (stereo unspecified) [CIGLITAZONE]	–	Not Active	Not Active	Not Active	Not Active	Not Active	Not Active	86 nM	–	–	–	–	–	–	–	–	–
Cc1ccnc2c1NC(=O)c1cccnc1N2C1CC1 [NEVIRAPINE]	Not Active	Not Active	Not Active	Not Active	Not Active	Not Active	Not Active	–	–	–	–	–	–	–	–	–	–
CNC[C@H](O)c1ccc(O)c(O)c1 [EPINEPHRINE]	Not Active	Not Active	Not Active	Not Active	Not Active	Not Active	Not Active	–	–	–	–	–	–	–	–	–	–
CN(Cc1cc(Br)cc(Br)c1N)C1CCCCC1 [BROMHEXINE]	Not Active	Not Active	Not Active	Not Active	Not Active	Not Active	Not Active	–	–	–	–	–	–	–	–	–	–
COPPER(II) OXIDE	Not Active	Not Active	Not Active	Not Active	Not Active	Not Active	Not Active	–	Not Active	Not Active	Not Active	Not Active	Not Active	–	–	–	–
CCN1C[C@]2(COC)[C@H](O)C[C@H](OC)[C@@]34[C@@H]5C[C@@]6(O)[C@H](OC(=O)c7ccccc7)[C@@H]5[C@@](OC(C)=O)([C@@H]([C@H](OC)[C@H]23)[C@@H]14)[C@@H](O)[C@@H]6OC [ACONITINE]	Not Active	Not Active	Not Active	Not Active	Not Active	Not Active	Not Active	–	–	–	–	–	–	–	–	–	–
COc1ccc(C[C@H](N)C(=O)N[C@H]2[C@@H](O)[C@H](n3cnc4c(N(C)C)ncnc43)O[C@@H]2CO)cc1 [PUROMYCIN]	Not Active	Not Active	Not Active	Not Active	Not Active	Not Active	Not Active	–	–	–	–	–	–	–	–	–	–
OC[C@H]1OC2C3[C@@H](CO)OC(O[C@H]4[C@H](O)[C@@H](O)[C@@H](O[C@H]5[C@H](O)[C@@H](O)[C@@H](O[C@H]6[C@H](O)[C@@H](O)[C@@H](O[C@H]7[C@H](O)[C@@H](O)[C@@H](O[C@H]8[C@H](O)[C@@H](O)[C@@H](O[C@H]9[C@H](O)[C@@H](O)C(OC1[C@H](O)[C@H]2O)O[C@@H]9CO)O[C@@H]8CO)O[C@@H]7CO)O[C@@H]6CO)O[C@@H]5CO)O[C@@H]4CO)[C@H](O)[C@H]3O	Not Active	Not Active	Not Active	Not Active	Not Active	Not Active	Not Active	–	–	–	–	–	–	–	–	–	–
NC(N)=Nc1nc(CSCCC(N)=NS(N)(=O)=O)cs1 [FAMOTIDINE]	Not Active	Not Active	Not Active	Not Active	Not Active	Not Active	Not Active	–	–	–	–	–	–	–	–	–	–
C[N+](C)(C)CCOP(=O)([O-])OC[C@H](O)CO	Not Active	Not Active	Not Active	Not Active	Not Active	Not Active	Not Active	–	–	–	–	–	–	–	–	–	–
COc1cc(/C=C/C(=O)O)ccc1O [FERULATE]	Not Active	Not Active	Not Active	Not Active	Not Active	Not Active	Not Active	–	–	–	–	–	–	–	–	–	–
NC(=O)NC(=O)Cc1ccccc1 [PHENACEMIDE]	Not Active	Not Active	Not Active	Not Active	Not Active	Not Active	Not Active	–	–	–	–	–	–	–	–	–	–
NC(=O)CN1CCCC1=O	Not Active	Not Active	Not Active	Not Active	Not Active	Not Active	Not Active	–	–	–	–	–	–	–	–	–	–
CC(C)Cn1cnc2c(N)nc3ccccc3c21 [IMIQUIMOD]	Not Active	Not Active	Not Active	Not Active	Not Active	Not Active	Not Active	–	–	–	–	–	–	–	–	–	–
c1ccc(Cn2ccnc2)cc1	Not Active	Not Active	Not Active	Not Active	–	–	Not Active	–	–	–	–	–	–	–	–	–	–
O=C(O)CNCP(=O)(O)O [GLYPHOSATE]	Not Active	Not Active	Not Active	Not Active	–	–	Not Active	–	–	–	–	–	–	–	–	–	–
CC(C)NCC(O)COc1ccc(CC(N)=O)cc1 (stereo unspecified) [ATENOLOL]	Not Active	Not Active	Not Active	Not Active	–	–	Not Active	–	–	–	–	–	–	–	–	–	–
CCN(CCO)CCCC(C)Nc1ccnc2cc(Cl)ccc12 (stereo unspecified) [HYDROXYCHLOROQUINE]	Not Active	Not Active	Not Active	Not Active	–	–	Not Active	–	–	–	–	–	–	–	–	–	–
c1ccc2c(c1)Nc1ccccc1S2 [PHENOTHIAZINE]	Not Active	Not Active	Not Active	Not Active	–	–	Not Active	–	–	–	–	–	–	–	–	–	–
NS(=O)(=O)c1cc(C(=O)O)c(NCc2ccco2)cc1Cl [FUROSEMIDE]	–	Not Active	Not Active	Not Active	–	–	Not Active	–	–	–	–	–	–	–	–	–	–
CC(N)Cc1c[nH]c2ccc(OCc3cccs3)cc12 (stereo unspecified) [BW-723C86]	Not Active	–	–	Not Active	–	–	Not Active	–	–	–	–	–	–	1130 nM	644 nM	–	–
COc1cc(NC(C)CCCN)c2ncccc2c1 (stereo unspecified) [PRIMAQUINE]	Not Active	Not Active	Not Active	Not Active	–	–	Not Active	–	–	–	–	–	–	–	–	–	–
O=c1[nH]c2ccccc2c2ccccc12	Not Active	Not Active	Not Active	Not Active	–	–	Not Active	–	–	–	–	–	–	–	–	–	–
CC(=O)Nc1ccc2c(c1)Cc1ccccc1-2 [2-ACETYLAMINOFLUORENE]	Not Active	Not Active	–	Not Active	–	–	Not Active	–	–	–	–	–	–	–	–	3170 nM	2020 nM
